# Data as given in patent publication US20250339399A1, “SUPRAMOLECULAR SELF-ASSEMBLY SYSTEM” (Beijing Creatron Institute of Pharmaceutical Research Co., …, priority 2022, published 2025).
# Where “and” joins values, the source holds several entries; their conditions need not be identical. Equal entries are not always repeated.
# How the values were obtained:
# [1] = cited from earlier work
# [2] = Binary (carrier), ternary and quaternary supramolecular self-assembly systems of polymer, carrier building block and target: guest concentration over incubation time (Examples 1-56); assay type: physicochemical; conditions: for Concentration of guest molecule in solution / Times that of the initial medium: 6 h
# How it was run: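 Targets were incubated at 37 °C in pH 2.0–7.4 buffers with 0.5% polymer alone or with carrier building blocks, after 0.5 h sonication for ternary systems, and shaken at 200 rpm. Samples at 0.5–6 h were centrifuged and diluted ≥10-fold, and dissolved target was quantified by HPLC; surfactant was added if needed.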
# [3] = Binary supramolecular self-assembly systems of polymer and target: guest concentration over incubation time (Comparative Example 2); assay type: physicochemical; conditions: for Concentration of guest molecule in solution / Times that of the initial medium: 6 h
# Experimental: Experiments were conducted according to the steps in Comparative Example 1, and quantitative analysis was carried out using the analytical method for each target to investigate the regulation ability […] stacking.
# [4] = Guest molecule concentration after incubation in initial medium without polymer (Comparative Example 1); assay type: physicochemical; conditions: 37° C.
# How it was run: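 Dissolved guest content measured by HPLC of centrifuged supernatants (37° C., 13000 rpm, 5 min) sampled at 0.5 h, 3 h and 6 h. Incubation was polymer-free at 37° C.±0.5° C. in buffers of pH 2.0-7.4; nominal loading was set by maximum clinical dose.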
# [5] = cited from earlier work; remark: listed apart in the source
# [6] = binary system with 0.5% polymer 101, incubation 0.5 h
# [7] = binary system with 0.5% polymer 101, incubation 3 h
# [8] = binary system with 0.5% polymer 101, incubation 6 h
# [9] = binary system with 0.5% polymer 102, incubation 0.5 h
# [10] = binary system with 0.5% polymer 102, incubation 3 h
# [11] = binary system with 0.5% polymer 102, incubation 6 h
# [12] = binary system with 0.5% polymer 103, incubation 0.5 h
# [13] = binary system with 0.5% polymer 103, incubation 3 h
# [14] = binary system with 0.5% polymer 103, incubation 6 h
# [15] = binary system with 0.5% polymer 106, incubation 0.5 h
# [16] = binary system with 0.5% polymer 106, incubation 3 h
# [17] = binary system with 0.5% polymer 106, incubation 6 h
# [18] = binary system with 0.5% polymer 107, incubation 0.5 h
# [19] = binary system with 0.5% polymer 107, incubation 3 h
# [20] = binary system with 0.5% polymer 107, incubation 6 h
# [21] = binary: 310, % not stated at the place
# [22] = binary: 312, % not stated at the place
# [23] = ternary: 102H (0.25% where stated) + 301, carrier % not stated
# [24] = ternary: 102H (0.25% where stated) + 302, carrier % not stated
# [25] = 0.25% 205 (102H+104) + 0.25% 301
# [26] = quaternary: 204 (102H+103E5) + 0.5% 301
# [27] = ternary: 102H + 313 at further increased mass percentage
# [28] = ternary: 102H + 318 at further increased mass percentage
compound,measurement,setting,value
"C=C1C[C@@]23CC[C@H]4[C@@](C)(CCC[C@@]4(C)C(=O)O)[C@@H]2CC[C@]1(O[C@@H]1O[C@H](CO)[C@@H](O)[C@H](O[C@@H]2O[C@H](CO)[C@@H](O)[C@H](O)[C@H]2O)[C@H]1O[C@@H]1O[C@H](CO)[C@@H](O)[C@H](O)[C@H]1O)C3 [Rebaudioside B, rebaudioside B]",Intrinsic solubility,[1],Intrinsic solubility: 7.98 mg/ml
C=C1C[C@@]23CC[C@H]4[C@@](C)(CCC[C@@]4(C)C(=O)O[C@@H]4O[C@H](CO)[C@@H](O)[C@H](O)[C@H]4O)[C@@H]2CC[C@]1(O[C@@H]1O[C@H](CO)[C@@H](O)[C@H](O[C@@H]2O[C@H](CO)[C@@H](O)[C@H](O)[C@H]2O)[C@H]1O[C@@H]1O[C@H](CO)[C@@H](O)[C@H](O)[C@H]1O)C3 [Rebaudioside A],Intrinsic solubility,[1],Intrinsic solubility: 288.8 mg/ml
"CC1(C)[C@@H](O[C@H]2O[C@H](C(=O)O)[C@@H](O)[C@H](O)[C@H]2O[C@@H]2O[C@H](C(=O)O)[C@@H](O)[C@H](O)[C@H]2O)CC[C@]2(C)[C@H]3C(=O)C=C4[C@@H]5C[C@@](C)(C(=O)O)CC[C@]5(C)CC[C@@]4(C)[C@]3(C)CC[C@@H]12 [Glycyrrhizic acid, glycyrrhizic acid]",Solubility,[1]; pH > 5.0,pH > 5.0: 159 mg/ml
C=CC[C@@H]1/C=C(\C)C[C@H](C)C[C@H](OC)[C@H]2O[C@@](O)(C(=O)C(=O)N3CCCC[C@H]3C(=O)O[C@H](/C(C)=C/[C@@H]3CC[C@@H](O)[C@H](OC)C3)[C@H](C)[C@@H](O)CC1=O)[C@H](C)C[C@@H]2OC [Tacrolimus],Concentration of guest molecule in solution,[2]; ternary: 0.25% 102H + 307,161.3 µg/mL
same,Concentration of guest molecule in solution,[2]; ternary: 0.25% 102H + 308,219.1 µg/mL
same,Concentration of guest molecule in solution,[2]; ternary: 0.25% 102H + 320,328.9 µg/mL
same,Concentration of guest molecule in solution,[2]; ternary: 0.25% 102H + 321,337.2 µg/mL
same,Concentration of the target in the solution measured after different incubation time,[3]; [6],224.0 µg/mL
same,Concentration of the target in the solution measured after different incubation time,[3]; [7],88.8 µg/mL
same,Concentration of the target in the solution measured after different incubation time,[3]; [8],161.3 µg/mL
same,Concentration of the target in the solution measured after different incubation time,[3]; [9],63.4 µg/mL
same,Concentration of the target in the solution measured after different incubation time,[3]; [10],60.3 µg/mL
same,Concentration of the target in the solution measured after different incubation time,[3]; [11],55.7 µg/mL
same,Concentration of the target in the solution measured after different incubation time,[3]; [12],46.8 µg/mL
same,Concentration of the target in the solution measured after different incubation time,[3]; [13],58.7 µg/mL
same,Concentration of the target in the solution measured after different incubation time,[3]; [14],6.0 µg/mL
same,Concentration of the target in the solution measured after different incubation time,[3]; [15],78.6 µg/mL
same,Concentration of the target in the solution measured after different incubation time,[3]; [16],65.2 µg/mL
same,Concentration of the target in the solution measured after different incubation time,[3]; [17],5.2 µg/mL
same,Concentration of the target in the solution measured after different incubation time,[3]; [18],68.7 µg/mL
same,Concentration of the target in the solution measured after different incubation time,[3]; [19],62.8 µg/mL
same,Concentration of the target in the solution measured after different incubation time,[3]; [20],13.2 µg/mL
same,Concentration of guest molecule measured after different incubated time,"[4]; 0.5 h, pH 4.5 acetate buffer",77.4 µg/mL
same,Concentration of guest molecule measured after different incubated time,"[4]; 3 h, pH 4.5 acetate buffer",8.2 µg/mL
same,Concentration of guest molecule measured after different incubated time,"[4]; 6 h, pH 4.5 acetate buffer",17.3 µg/mL
same,LogP,[5],LogP 5.59
COc1ccc(-n2nc(C(N)=O)c3c2C(=O)N(c2ccc(N4CCCCC4=O)cc2)CC3)cc1 [Apixaban],Concentration of guest molecule in solution,"[2]; binary, no polymer: 0.5% 301",366.6 µg/mL
same,Times that of the initial medium,"[2]; binary, no polymer: 0.5% 301",7.5 times
same,Concentration of guest molecule in solution,[2]; [21],300.0 µg/mL
same,Times that of the initial medium,[2]; [21],6.3 times
same,Concentration of guest molecule in solution,[2]; [22],397.9 µg/mL
same,Times that of the initial medium,[2]; [22],8.2 times
same,Concentration of guest molecule in solution,[2]; [23],334.8 µg/mL
same,Concentration of guest molecule in solution,[2]; [24],312.6 µg/mL
same,Encapsulation rate for the guest molecule,[2]; ternary: 102H + 313 or 318,~100%
same,Concentration of guest molecule in solution,[3]; binary: 0.25% 102H,127.7 µg/mL
same,Times that of the initial medium,[3]; binary: 0.25% 102H,2.7 times
same,Concentration of guest molecule in solution,[3]; binary: 0.25% 103E5,114.6 µg/mL
same,Times that of the initial medium,[3]; binary: 0.25% 103E5,2.4 times
same,Concentration of guest molecule in solution,[3]; binary: 0.5% 102H,327.6 µg/mL
same,Times that of the initial medium,[3]; binary: 0.5% 102H,6.7 times
same,Concentration of guest molecule measured after different incubated time,"[4]; 0.5 h, pH 6.8 phosphate buffer",49.8 µg/mL
same,Concentration of guest molecule measured after different incubated time,"[4]; 3 h, pH 6.8 phosphate buffer",48.7 µg/mL
same,Concentration of guest molecule measured after different incubated time,"[4]; 6 h, pH 6.8 phosphate buffer",48.0 µg/mL
same,LogP,[5],LogP 1.83
C=CC(=O)N1CCC[C@@H](n2nc(-c3ccc(Oc4ccccc4)cc3)c3c(N)ncnc32)C1 [Ibrutinib],Concentration of guest molecule in solution,[2]; [25],157.4 µg/mL
same,Times that of the initial medium,[2]; [25],8.6 times
same,Concentration of guest molecule in solution,"[2]; binary, no polymer: 0.5% 301",156.9 µg/mL
same,Times that of the initial medium,"[2]; binary, no polymer: 0.5% 301",8.5 times
same,Concentration of guest molecule in solution,[2]; [26],206.4 µg/mL
same,Times that of the initial medium,[2]; [26],11 times
same,Encapsulation rate for the guest molecule,[2]; ternary: 0.25% 102H + 0.5% 319,~100%
same,Concentration of guest molecule in solution,[2]; [23],446.0 µg/mL
same,Times that of the initial medium,[2]; [23],about 25 times
same,Concentration of guest molecule in solution,[2]; [24],410.7 µg/mL
same,Times that of the initial medium,[2]; [24],22 times
same,Concentration of guest molecule in solution,"[2]; ternary: 102H + 313, carrier % not given",436.6 µg/mL
same,Encapsulation rate for the guest molecule,[2]; [27],~100%
same,Concentration of guest molecule in solution,[2]; [27],792.1 µg/mL
same,Times that of the initial medium,[2]; [27],43 times
same,Concentration of guest molecule in solution,"[2]; ternary: 102H + 318, carrier % not stated",429.9 µg/mL
same,Concentration of guest molecule in solution,[2]; [28],774.7 µg/mL
same,Times that of the initial medium,[2]; [28],42 times
same,Concentration of the target in the solution measured after different incubation time,[3]; [6],48.5 µg/mL
same,Concentration of the target in the solution measured after different incubation time,[3]; [7],93.5 µg/mL
same,Concentration of the target in the solution measured after different incubation time,[3]; [8],95.3 µg/mL
same,Concentration of the target in the solution measured after different incubation time,[3]; [9],168.1 µg/mL
same,Concentration of the target in the solution measured after different incubation time,[3]; [10],176.4 µg/mL
same,Concentration of the target in the solution measured after different incubation time,[3]; [11],154.5 µg/mL
same,Concentration of the target in the solution measured after different incubation time,[3]; [12],44.1 µg/mL
same,Concentration of the target in the solution measured after different incubation time,[3]; [13],17.8 µg/mL
same,Concentration of the target in the solution measured after different incubation time,[3]; [14],17.1 µg/mL
same,Concentration of the target in the solution measured after different incubation time,"[3]; binary system with 0.5% polymer 104, incubation 0.5 h",13.4 µg/mL
same,Concentration of the target in the solution measured after different incubation time,"[3]; binary system with 0.5% polymer 104, incubation 3 h",13.7 µg/mL
same,Concentration of the target in the solution measured after different incubation time,"[3]; binary system with 0.5% polymer 104, incubation 6 h",14.3 µg/mL
same,Concentration of the target in the solution measured after different incubation time,[3]; [15],33.8 µg/mL
same,Concentration of the target in the solution measured after different incubation time,[3]; [16],65.9 µg/mL
same,Concentration of the target in the solution measured after different incubation time,[3]; [17],68.4 µg/mL
same,Concentration of the target in the solution measured after different incubation time,[3]; [18],47.9 µg/mL
same,Concentration of the target in the solution measured after different incubation time,[3]; [19],53.1 µg/mL
same,Concentration of the target in the solution measured after different incubation time,[3]; [20],56.0 µg/mL
same,Concentration of guest molecule in solution,[3]; binary: 0.25% 102H,260.2 µg/mL
same,Times that of the initial medium,[3]; binary: 0.25% 102H,14 times and 14.5 times
same,Concentration of guest molecule measured after different incubated time,"[4]; 0.5 h, 0.05% Tween 20 in pH 6.8 phosphate buffer",16.5 µg/mL
same,Concentration of guest molecule measured after different incubated time,"[4]; 3 h, 0.05% Tween 20 in pH 6.8 phosphate buffer",17.9 µg/mL
same,Concentration of guest molecule measured after different incubated time,"[4]; 6 h, 0.05% Tween 20 in pH 6.8 phosphate buffer",18.4 µg/mL
same,LogD7.4 or Log P,[5],3.63
